The nature of the data set: Mildness to the skin (drying, stinging) on topical use. Conditions: as proton donating agent in the compositions. The format is in vivo.

Molecules are shown by their SMILES.

For the compound `O=C1CCC(C(=O)O)N1` (stereo not shown) [2-pyrrolidone-5 carboxylic acid], the “mildness to the skin and stinging compared with other acids suitable for topical application” value is “milder to the skin and causes less stinging than many other acids”.

These data come from patent US20020002124A1, “Antimicrobial cleansing compositions” (priority 2000, published 2002).
